Reference: US12448377B2, “Heterocyclic compound” (Takeda Pharmaceutical Company Limited, priority 2019, dated 2025)

molecular target: T1, human orexin type 2 receptor (Homo sapiens, UniProt O43614); assay: Measurement of orexin type 2 receptor agonist activity (calcium fluorescence, CHO cells forcibly expressing human OX2 receptor); type: cell-based; conditions: compound at 3 μM, DMSO = 0%, orexin A (human) 10 nM = 100%
T1 construct: expressed in transfected cells
T1 sequence (O43614 1-444): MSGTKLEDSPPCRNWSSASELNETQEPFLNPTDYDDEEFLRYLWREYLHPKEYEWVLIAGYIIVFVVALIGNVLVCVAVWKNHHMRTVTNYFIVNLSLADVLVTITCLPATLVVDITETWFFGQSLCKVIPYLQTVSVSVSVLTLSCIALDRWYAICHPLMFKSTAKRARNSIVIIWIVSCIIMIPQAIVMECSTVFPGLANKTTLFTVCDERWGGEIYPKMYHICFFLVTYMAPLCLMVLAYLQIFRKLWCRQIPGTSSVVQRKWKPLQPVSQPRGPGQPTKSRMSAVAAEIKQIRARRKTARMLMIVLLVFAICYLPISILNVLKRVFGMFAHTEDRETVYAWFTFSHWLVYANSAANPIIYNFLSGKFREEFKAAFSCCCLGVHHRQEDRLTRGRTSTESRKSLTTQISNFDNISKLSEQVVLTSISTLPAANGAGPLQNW
Excerpt: To obtain a cell clone stably expressing human orexin type 2 receptor, human orexin type 2 receptor cDNA was inserted into pcDNA3.1(+) plasmid vector (Invitrogen), and a plasmid DNA for expression of human orexin type 2 receptor (pcDNA3.1(+)/hOX2R) was cloned. The plasmid DNA was introduced into CHO-K1 cell by an electroporation method, and human orexin type 2 receptor-expressing clonal cells were obtained by limiting dilution method using G418 drug resistance as a selection marker.
CHO cells forcibly expressing human OX2 receptor were seeded in each well of 384 well black transparent bottom plate (BD Falcon) at 10,000 cells/well, and cultured for one day in a 5% CO2 incubator at 37° C. After removal of the medium in the cell plate, assay buffer A containing a calcium indicator (HBSS (Thermo Fisher Scientific), 20 mM HEPES (Thermo Fisher Scientific), 0.1% BSA (Sigma-Aldrich), 2.5 μg/mL Fluo-4 AM (DOJINDO Chemical), 0.08% Pluronic F127 (DOJINDO Chemical), 1.25 mM probenecid (DOJINDO Chemical)) was added thereto at 30 μL/well. The plate was stood for 30 min in a 5% CO2 incubator at 37° C., and further stood at room temperature for 30 min. A test compound prepared by diluting with assay buffer B (HBSS, 20 mM HEPES, 0.1% BSA) was added thereto at 10 μL/well, and the fluorescence value was measured by FDSSμCELL (Hamamatsu Photonics K.K.) every one sec for 1 min, and thereafter every two sec for 1 min 40 sec. The activity (%) of the test compound was calculated assuming that variation in the fluorescence value when DMSO was added instead of the test compound was 0%, and variation in the fluorescence value when orexin A (human) (PEPTIDE INSTITUTE, INC.) was added at the final concentration of 10 nM was 100%.

SMILES | OX2R agonist activity (3 μM, %)
CCc1ccc2n(c1=O)C(COC1CCC(C)CC1)C(NS(C)(=O)=O)CC2 (racemic) [Example 2, rac-N-[(3S,4R)-7-ethyl-4-({[(1s,4S)-4-methylcyclohexyl]oxy}methyl)-6-oxo-1,3,4,6-tetrahydro-2H-quinolizin-3-yl]methanesulfonamide] | 94%
CC1CCC(OCC2C(NS(C)(=O)=O)CCc3cccc(=O)n32)CC1 (racemic) [Example 3, rac-N-[(3S,4R)-4-({[(1s,4S)-4-methylcyclohexyl]oxy}methyl)-6-oxo-1,3,4,6-tetrahydro-2H-quinolizin-3-yl]methanesulfonamide] | 89%
COC1CCC(OCC2C(NS(C)(=O)=O)CCc3ccc(C)c(=O)n32)CC1 (racemic) [Example 4, N-[(3SR,4RS)-4-{[(4-methoxycyclohexyl)oxy]methyl}-7-methyl-6-oxo-1,3,4,6-tetrahydro-2H-quinolizin-3-yl]methanesulfonamide] | 58%
CCS(=O)(=O)NC1CCc2ccc(C)c(=O)n2C1COC1CCC(C)CC1 (racemic) [Example 7, rac-N-[(3S,4R)-7-methyl-4-({[(1s,4S)-4-methylcyclohexyl]oxy}methyl)-6-oxo-1,3,4,6-tetrahydro-2H-quinolizin-3-yl]ethanesulfonamide] | 85%
Cc1ccc2n(c1=O)C(COC1CCC(C)CC1)C(NS(=O)(=O)C1CC1)CC2 (racemic) [Example 8, rac-N-[(3S,4R)-7-methyl-4-({[(1s,4S)-4-methylcyclohexyl]oxy}methyl)-6-oxo-1,3,4,6-tetrahydro-2H-quinolizin-3-yl]cyclopropanesulfonamide] | 80%
CCC1CCC(OCC2C(NS(=O)(=O)C3CC3)CCc3ccc(C)c(=O)n32)CC1 (racemic) [Example 10, rac-N-[(3S,4R)-4-({[(1s,4S)-4-ethylcyclohexyl]oxy}methyl)-7-methyl-6-oxo-1,3,4,6-tetrahydro-2H-quinolizin-3-yl]cyclopropanesulfonamide] | 97%
CCC1CCC(OCC2C(NS(=O)(=O)CC)CCc3ccc(C)c(=O)n32)CC1 (racemic) [Example 11, rac-N-[(3S,4R)-4-({[(1s,4S)-4-ethylcyclohexyl]oxy}methyl)-7-methyl-6-oxo-1,3,4,6-tetrahydro-2H-quinolizin-3-yl]ethanesulfonamide] | 100%
Cc1ccc2n(c1=O)C(COC1CCC(C(C)C)CC1)C(NS(C)(=O)=O)CC2 (racemic) [Example 12, rac-N-[(3S,4R)-7-methyl-6-oxo-4-({[(1s,4S)-4-(propan-2-yl)cyclohexyl]oxy}methyl)-1,3,4,6-tetrahydro-2H-quinolizin-3-yl] methanesulfonamide] | 96%
CCS(=O)(=O)NC1CCc2ccc(C)c(=O)n2C1COC1CCC(C(C)C)CC1 (racemic) [Example 13, rac-N-[(3S,4R)-7-methyl-6-oxo-4-({[(1s,4S)-4-(propan-2-yl)cyclohexyl]oxy}methyl)-1,3,4,6-tetrahydro-2H-quinolizin-3-yl]ethanesulfonamide] | 96%
Cc1ccc2n(c1=O)C(COC1CCC(C(C)C)CC1)C(NS(=O)(=O)C1CC1)CC2 (racemic) [Example 14, rac-N-[(3S,4R)-7-methyl-6-oxo-4-({[(1s,4S)-4-(propan-2-yl)cyclohexyl]oxy}methyl)-1,3,4,6-tetrahydro-2H-quinolizin-3-yl]cyclopropanesulfonamide] | 100%
CCS(=O)(=O)NC1CCc2ccc(C)c(=O)n2C1COC1CCC(c2ccccc2)CC1 (racemic) [Example 15, rac-N-[(3S,4R)-7-methyl-6-oxo-4-({[(1s,4S)-4-phenylcyclohexyl]oxy}methyl)-1,3,4,6-tetrahydro-2H-quinolizin-3-yl]ethanesulfonamide] | 96%
Cc1ccc2n(c1=O)C(COC1CCC(c3ccccc3)CC1)C(NS(=O)(=O)C1CC1)CC2 (racemic) [Example 16, rac-N-[(3S,4R)-7-methyl-6-oxo-4-({[(1s,4S)-4-phenylcyclohexyl]oxy}methyl)-1,3,4,6-tetrahydro-2H-quinolizin-3-yl]cyclopropanesulfonamide] | 91%
Cc1ccc2n(c1=O)C(COC1CCC(C(C)(C)C)CC1)C(NS(C)(=O)=O)CC2 (racemic) [Example 17, rac-N-[(3S,4R)-4-({[(1s,4S)-4-tert-butylcyclohexyl]oxy}methyl)-7-methyl-6-oxo-1,3,4,6-tetrahydro-2H-quinolizin-3-yl]methanesulfonamide] | 86%
CCS(=O)(=O)NC1CCc2ccc(C)c(=O)n2C1COC1CCC(C(C)(C)C)CC1 (racemic) [Example 18, rac-N-[(3S,4R)-4-({[(1s,4S)-4-tert-butylcyclohexyl]oxy}methyl)-7-methyl-6-oxo-1,3,4,6-tetrahydro-2H-quinolizin-3-yl]ethanesulfonamide] | 96%
Cc1ccccc1C1CCC(OCC2C(NS(C)(=O)=O)CCc3ccc(C)c(=O)n32)CC1 (racemic) [Example 19, rac-N-[(3S,4R)-7-methyl-4-({[(1s,4S)-4-(2-methylphenyl)cyclohexyl]oxy}methyl)-6-oxo-1,3,4,6-tetrahydro-2H-quinolizin-3-yl]methanesulfonamide] | 89%
Cc1ccccc1C1CCC(OCC2C(NS(=O)(=O)C3CC3)CCc3ccc(C)c(=O)n32)CC1 (racemic) [Example 20, rac-N-[(3S,4R)-7-methyl-4-({[(1s,4S)-4-(2-methylphenyl)cyclohexyl]oxy}methyl)-6-oxo-1,3,4,6-tetrahydro-2H-quinolizin-3-yl]cyclopropanesulfonamide] | 97%
Cc1cccc(C2CCC(OCC3C(NS(C)(=O)=O)CCc4ccc(C)c(=O)n43)CC2)c1 (racemic) [Example 21, rac-N-[(3S,4R)-7-methyl-4-({[(1s,4S)-4-(3-methylphenyl)cyclohexyl]oxy}methyl)-6-oxo-1,3,4,6-tetrahydro-2H-quinolizin-3-yl]methanesulfonamide] | 92%
CCS(=O)(=O)NC1CCc2ccc(C)c(=O)n2C1COC1CCC(c2cccc(C)c2)CC1 (racemic) [Example 22, rac-N-[(3S,4R)-7-methyl-4-({[(1s,4S)-4-(3-methylphenyl)cyclohexyl]oxy}methyl)-6-oxo-1,3,4,6-tetrahydro-2H-quinolizin-3-yl]ethanesulfonamide] | 83%
CCS(=O)(=O)NC1CCc2ccc(C)c(=O)n2C1COC1CCC(c2ccccc2C)CC1 (racemic) [Example 23, rac-N-[(3S,4R)-7-methyl-4-({[(1s,4S)-4-(2-methylphenyl)cyclohexyl]oxy}methyl)-6-oxo-1,3,4,6-tetrahydro-2H-quinolizin-3-yl]ethanesulfonamide] | 96%
Cc1ccc2n(c1=O)C(COC1CCC(C(C)(C)C)CC1)C(NS(=O)(=O)C1CC1)CC2 (racemic) [Example 24, rac-N-[(3S,4R)-4-({[(1s,4S)-4-tert-butylcyclohexyl]oxy}methyl)-7-methyl-6-oxo-1,3,4,6-tetrahydro-2H-quinolizin-3-yl]cyclopropanesulfonamide] | 86%
Cc1cccc(C2CCC(OCC3C(NS(=O)(=O)C4CC4)CCc4ccc(C)c(=O)n43)CC2)c1 (racemic) [Example 25, rac-N-[(3S,4R)-7-methyl-4-({[(1s,4S)-4-(3-methylphenyl)cyclohexyl]oxy}methyl)-6-oxo-1,3,4,6-tetrahydro-2H-quinolizin-3-yl]cyclopropanesulfonamide] | 92%
Cc1ccc2n(c1=O)C(COC1CCC(C)CC1)C(NS(=O)(=O)N(C)C)CC2 (racemic) [Example 26, rac-N,N-dimethyl-N′-[(3S,4R)-7-methyl-4-({[(1s,4S)-4-methylcyclohexyl]oxy}methyl)-6-oxo-1,3,4,6-tetrahydro-2H-quinolizin-3-yl]sulfuric diamide] | 86%
CCC1CCC(OCC2C(NS(=O)(=O)N(C)C)CCc3ccc(C)c(=O)n32)CC1 (racemic) [Example 27, rac-N′-[(3S,4R)-4-({[(1s,4S)-4-ethylcyclohexyl]oxy}methyl)-7-methyl-6-oxo-1,3,4,6-tetrahydro-2H-quinolizin-3-yl]-N,N-dimethylsulfuric diamide] | 85%
